Laboratory results: PubChem BioAssay AID1963832 (Molecular Pharmacology Branch, DTP, NCI, 2024)
pIC50: −log10 of the molar value.

System: 885724-159-R-J1-PDC complex spheroid viability
Assay: Anticancer human tumor 885724-159-R-J1-PDC patient-derived pancreatic adenocarcinoma cell line growth inhibition [POLQ]
Details: for pIC50: curve of first compound; for viability, T/C: stronger effect = lower value
Outline: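 Growth inhibition in 3D: complex spheroids (tumor PDC, HUVEC, MSC) treated with POLQ inhibitor combinations; where Cmax unknown, highest tested concentration 10 microM, except SN-38 at 1 microM.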

[1] = second compound 0.0316 µM, first compound 0.0316 µM
[2] = second compound 0.0316 µM, first compound 0.1 µM
[3] = second compound 0.0316 µM, first compound 0.316 µM
[4] = second compound 0.0316 µM, first compound 1 µM
[5] = second compound 0.0316 µM, first compound 3.16 µM
[6] = second compound 0.0316 µM, first compound 10 µM
[7] = second compound 0.1 µM, first compound 0.0316 µM
[8] = second compound 0.1 µM, first compound 0.1 µM
[9] = second compound 0.1 µM, first compound 0.316 µM
[10] = second compound 0.1 µM, first compound 1 µM
[11] = second compound 0.1 µM, first compound 3.16 µM
[12] = second compound 0.1 µM, first compound 10 µM
[13] = second compound 0.316 µM, first compound 0.0316 µM
[14] = second compound 0.316 µM, first compound 0.1 µM
[15] = second compound 0.316 µM, first compound 0.316 µM
[16] = second compound 0.316 µM, first compound 1 µM
[17] = second compound 0.316 µM, first compound 3.16 µM
[18] = second compound 0.316 µM, first compound 10 µM
[19] = second compound 1 µM, first compound 0.0316 µM
[20] = second compound 1 µM, first compound 0.1 µM
[21] = second compound 1 µM, first compound 0.316 µM
[22] = second compound 1 µM, first compound 1 µM
[23] = second compound 1 µM, first compound 3.16 µM
[24] = second compound 1 µM, first compound 10 µM
[25] = second compound 3.16 µM, first compound 0.0316 µM
[26] = second compound 3.16 µM, first compound 0.1 µM
[27] = second compound 3.16 µM, first compound 0.316 µM
[28] = second compound 3.16 µM, first compound 1 µM
[29] = second compound 3.16 µM, first compound 3.16 µM
[30] = second compound 3.16 µM, first compound 10 µM
[31] = second compound 10 µM, first compound 0.0316 µM
[32] = second compound 10 µM, first compound 0.1 µM
[33] = second compound 10 µM, first compound 0.316 µM
[34] = second compound 10 µM, first compound 1 µM
[35] = second compound 10 µM, first compound 3.16 µM
[36] = second compound 10 µM, first compound 10 µM
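Note: spheroids exposed to compounds for 7 days.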

## CC1COCCN1c1cc(C2(S(C)(=N)=O)CC2)nc(-c2ccnc3[nH]ccc23)n1 (stereo not drawn) + Nc1ccc(C#CCN(C(=O)Cc2ncc(C(F)(F)F)cc2C(F)(F)F)c2ccc(F)cc2)nn1
Second compound 0.0316 µM
  pIC50: < 5.00
Second compound 0.1 µM
  pIC50: 5.15
Second compound 0.316 µM
  pIC50: < 5.00
Second compound 1 µM
  pIC50: 5.22
Second compound 3.16 µM
  pIC50: 5.10
Second compound 10 µM
  pIC50: < 5.00
[1]
  viability, T/C: 87.3%
[2]
  viability, T/C: 89.6%
[3]
  viability, T/C: 90.4%
[4]
  viability, T/C: 75.9%
[5]
  viability, T/C: 55.7%
[6]
  viability, T/C: 50%
[7]
  viability, T/C: 104%
[8]
  viability, T/C: 94.5%
[9]
  viability, T/C: 94%
[10]
  viability, T/C: 71.5%
[11]
  viability, T/C: 57.8%
[12]
  viability, T/C: 46.7%
[13]
  viability, T/C: 95.3%
[14]
  viability, T/C: 97.2%
[15]
  viability, T/C: 83.4%
[16]
  viability, T/C: 63.4%
[17]
  viability, T/C: 55.5%
[18]
  viability, T/C: 53.2%
[19]
  viability, T/C: 95.3%
[20]
  viability, T/C: 85.1%
[21]
  viability, T/C: 87.8%
[22]
  viability, T/C: 75.9%
[23]
  viability, T/C: 55.8%
[24]
  viability, T/C: 45.4%
[25]
  viability, T/C: 94.3%
[26]
  viability, T/C: 88.6%
[27]
  viability, T/C: 91.1%
[28]
  viability, T/C: 69.9%
[29]
  viability, T/C: 53.5%
[30]
  viability, T/C: 48.4%
[31]
  viability, T/C: 95.6%
[32]
  viability, T/C: 99.7%
[33]
  viability, T/C: 94.7%
[34]
  viability, T/C: 64.1%
[35]
  viability, T/C: 57.8%
[36]
  viability, T/C: 47%

## CCCS(=O)(=O)Nc1ccc(F)c(C(=O)c2c[nH]c3ncc(-c4ccc(Cl)cc4)cc23)c1F + Nc1ccc(C#CCN(C(=O)Cc2ncc(C(F)(F)F)cc2C(F)(F)F)c2ccc(F)cc2)nn1
Second compound 0.0316 µM
  pIC50: < 5.00
Second compound 0.1 µM
  pIC50: < 5.00
Second compound 0.316 µM
  pIC50: < 5.00
Second compound 1 µM
  pIC50: < 5.00
Second compound 3.16 µM
  pIC50: < 5.00
Second compound 10 µM
  pIC50: < 5.00
[1]
  viability, T/C: 93.2%
[2]
  viability, T/C: 95.2%
[3]
  viability, T/C: 115%
[4]
  viability, T/C: 128%
[5]
  viability, T/C: 147%
[6]
  viability, T/C: 97.6%
[7]
  viability, T/C: 105%
[8]
  viability, T/C: 107%
[9]
  viability, T/C: 109%
[10]
  viability, T/C: 137%
[11]
  viability, T/C: 153%
[12]
  viability, T/C: 97.5%
[13]
  viability, T/C: 99.4%
[14]
  viability, T/C: 110%
[15]
  viability, T/C: 118%
[16]
  viability, T/C: 134%
[17]
  viability, T/C: 147%
[18]
  viability, T/C: 94.1%
[19]
  viability, T/C: 95.6%
[20]
  viability, T/C: 101%
[21]
  viability, T/C: 116%
[22]
  viability, T/C: 132%
[23]
  viability, T/C: 148%
[24]
  viability, T/C: 95%
[25]
  viability, T/C: 90.8%
[26]
  viability, T/C: 103%
[27]
  viability, T/C: 109%
[28]
  viability, T/C: 144%
[29]
  viability, T/C: 146%
[30]
  viability, T/C: 85%
[31]
  viability, T/C: 96.8%
[32]
  viability, T/C: 109%
[33]
  viability, T/C: 133%
[34]
  viability, T/C: 137%
[35]
  viability, T/C: 135%
[36]
  viability, T/C: 94.5%

## COc1ccc([C@@H](O)c2cc(-c3ncnc4cc(N5CCOCC5)ccc34)c(F)cc2Cl)nn1 + Nc1ccc(C#CCN(C(=O)Cc2ncc(C(F)(F)F)cc2C(F)(F)F)c2ccc(F)cc2)nn1
Second compound 0.0316 µM
  pIC50: 5.43
Second compound 0.1 µM
  pIC50: 5.42
Second compound 0.316 µM
  pIC50: 5.37
Second compound 1 µM
  pIC50: 5.37
Second compound 3.16 µM
  pIC50: 5.40
Second compound 10 µM
  pIC50: 5.31
[1]
  viability, T/C: 83.2%
[2]
  viability, T/C: 105%
[3]
  viability, T/C: 73.6%
[4]
  viability, T/C: 74.9%
[5]
  viability, T/C: 52.3%
[6]
  viability, T/C: 33.1%
[7]
  viability, T/C: 100%
[8]
  viability, T/C: 89.6%
[9]
  viability, T/C: 84.4%
[10]
  viability, T/C: 75.1%
[11]
  viability, T/C: 51%
[12]
  viability, T/C: 32.9%
[13]
  viability, T/C: 98.7%
[14]
  viability, T/C: 103%
[15]
  viability, T/C: 86%
[16]
  viability, T/C: 73%
[17]
  viability, T/C: 57.5%
[18]
  viability, T/C: 32.8%
[19]
  viability, T/C: 92.8%
[20]
  viability, T/C: 86.3%
[21]
  viability, T/C: 81.5%
[22]
  viability, T/C: 69.5%
[23]
  viability, T/C: 57.5%
[24]
  viability, T/C: 33.3%
[25]
  viability, T/C: 91.5%
[26]
  viability, T/C: 93.9%
[27]
  viability, T/C: 82.9%
[28]
  viability, T/C: 67.8%
[29]
  viability, T/C: 56%
[30]
  viability, T/C: 33.5%
[31]
  viability, T/C: 96.7%
[32]
  viability, T/C: 89.4%
[33]
  viability, T/C: 87.4%
[34]
  viability, T/C: 70.6%
[35]
  viability, T/C: 59.1%
[36]
  viability, T/C: 36.6%

## COc1cccc(OCCCN)c1-c1cc(Nc2cnc(C#N)cn2)n[nH]1 + Nc1ccc(C#CCN(C(=O)Cc2ncc(C(F)(F)F)cc2C(F)(F)F)c2ccc(F)cc2)nn1
Second compound 0.0316 µM
  pIC50: 7.82
Second compound 0.1 µM
  pIC50: 7.86
Second compound 0.316 µM
  pIC50: 7.85
Second compound 1 µM
  pIC50: 7.81
Second compound 3.16 µM
  pIC50: 7.74
Second compound 10 µM
  pIC50: < 6.00
Second compound 0.0316 µM, first compound 0.00316 µM
  viability, T/C: 79%
Second compound 0.0316 µM, first compound 0.01 µM
  viability, T/C: 52%
[1]
  viability, T/C: 46.1%
[2]
  viability, T/C: 46%
[3]
  viability, T/C: 45.7%
[4]
  viability, T/C: 47.7%
Second compound 0.1 µM, first compound 0.00316 µM
  viability, T/C: 74%
Second compound 0.1 µM, first compound 0.01 µM
  viability, T/C: 53%
[7]
  viability, T/C: 43.2%
[8]
  viability, T/C: 43.3%
[9]
  viability, T/C: 43.3%
[10]
  viability, T/C: 48.1%
Second compound 0.316 µM, first compound 0.00316 µM
  viability, T/C: 77.3%
Second compound 0.316 µM, first compound 0.01 µM
  viability, T/C: 51.5%
[13]
  viability, T/C: 47.3%
[14]
  viability, T/C: 42.9%
[15]
  viability, T/C: 43%
[16]
  viability, T/C: 48.6%
Second compound 1 µM, first compound 0.00316 µM
  viability, T/C: 73.7%
Second compound 1 µM, first compound 0.01 µM
  viability, T/C: 51.1%
[19]
  viability, T/C: 50.1%
[20]
  viability, T/C: 41.3%
[21]
  viability, T/C: 41%
[22]
  viability, T/C: 46.7%
Second compound 3.16 µM, first compound 0.00316 µM
  viability, T/C: 68.4%
Second compound 3.16 µM, first compound 0.01 µM
  viability, T/C: 52.3%
[25]
  viability, T/C: 46.6%
[26]
  viability, T/C: 44%
[27]
  viability, T/C: 53.6%
[28]
  viability, T/C: 48.1%
Second compound 10 µM, first compound 0.00316 µM
  viability, T/C: 72.3%
Second compound 10 µM, first compound 0.01 µM
  viability, T/C: 57.5%
[31]
  viability, T/C: 46.1%
[32]
  viability, T/C: 49.7%
[33]
  viability, T/C: 53.2%
[34]
  viability, T/C: 51.2%
